These results are taken from ChEMBL document CHEMBL1149977, “Synthesis of 1-(2-aminopropyl)benzimidazoles, structurally related to the TIBO derivative R82150, with activity against human immunodeficiency virus” (Bioorg Med Chem Lett, 1993).

Experiment [1] relates to CEM-SS. Description: Tested for the cytotoxicity against CEM-SS cells (determined by the inhibition of [3H]-thymidine uptake). In kind it is functional. The note with it: Homo sapiens.
Experiment [2] deals with CEM-SS. The experiment can be described thus: Tested for the inhibition of HIV-1 in CEM-SS cells measured using Syncytial assay. The experiment is classed as functional, cell-based. Particulars: Homo sapiens.
Experiment [3] addresses Human immunodeficiency virus type 1 reverse transcriptase (Human immunodeficiency virus 1, UniProt Q72547). The experiment can be described thus: Tested for the inhibition of HIV-1 reverse transcriptase using a ribosomal RNA template.
The target in experiment [4] is Human immunodeficiency virus type 1 reverse transcriptase (Human immunodeficiency virus 1) (UniProt Q72547). Description: Tested for the inhibition of HIV-1 reverse transcriptase at a concentration of 10 ug/mL using a ribosomal RNA template.
For experiment [5] the target is unchanged. Description: Tested for the inhibition of HIV-1 reverse transcriptase at a concentration of 100 ug/mL using a ribosomal RNA template.
The nature of experiment [6]: Selectivity index was determined by the ratio of CC50 to IC50. The experiment is classed as functional.

pIC50: −log10 of the molar value.

The compound `C=CCN(C)C(C)Cn1c(S)nc2ccccc21` (stereo not drawn) showed a CC50 in the experiment with CEM-SS [1] greater than 100 µM. Further, in the experiment with CEM-SS [2], the pIC50 is 4.64.
As to `CC(C)=CCN1Cc2cc(Cl)cc3[nH]c(=S)n(c23)C[C@@H]1C`, in the experiment with CEM-SS [1], the CC50 stood at 35 µM. Also, the values for the pIC50 (in experiment [3]; with CEM-SS [2]) were 7.81 and 7.26, respectively.
`CC(C)=CCN(C)C(C)Cn1c(S)nc2ccccc21` (stereo not drawn) came in with a CC50 in the experiment with CEM-SS [1] greater than 100 µM. In addition, the figures for the inhibition in experiment [4] and in experiment [5] were 19% and 34%, respectively. The compound also showed a pIC50 in the experiment on CEM-SS [2] of 4.85.
For `C=CCNC(C)Cn1c(S)nc2ccccc21` (stereo not drawn), the CC50 in the experiment with CEM-SS [1] was greater than 100 µM. Besides, the inhibition came out at 4.5% in experiment [4] and 29% in experiment [5]. Moreover, the pIC50 with CEM-SS [2] was 4.55.
For `CC(C)=CCNC(C)Cn1c(S)nc2ccccc21` (stereo not drawn), in that order: 81 µM, 19%, 46% and 4.64.
As for `CC(Cn1c(S)nc2ccccc21)NCc1ccccc1` (stereo not drawn), the CC50 in the experiment on CEM-SS [1] is 82 µM. Moreover, the results for the inhibition in experiment [4] and in experiment [5] were 17% and 36%, respectively. In experiment [6], the Selectivity index was found to be 19. Also, the pIC50 in the experiment on CEM-SS [2] is 5.37.
Turning to `CC(C)=CCN1Cc2cccc3[nH]c(=S)n(c23)C[C@@H]1C`, in the experiment with CEM-SS [1], the CC50 came out at 79 µM. Further, the pIC50 in the experiment with CEM-SS [2] is 7.59.
Compound `CC(Cn1c(S)nc2ccccc21)N(C)Cc1ccccc1` (stereo not drawn) returned a CC50 in the experiment with CEM-SS [1] of 79 µM. Also, the inhibition came to 13% in experiment [4] and 31% in experiment [5]. Besides, in the experiment with CEM-SS [2], the pIC50 is 4.70.
